Key:
human PPARγ = molecular target: T1, human PPARγ (Homo sapiens, UniProt P37231); experiment: PPARγ activation, luciferase reporter in transfected COS-7 cells; assay type: cell-based; details: 24 hours
T1 construct: expressed in transfected cells; host or cells: COS-7 monkey kidney cells (ATCC CRL-1651)
T1 sequence (P37231 176-477 isoform P37231-2): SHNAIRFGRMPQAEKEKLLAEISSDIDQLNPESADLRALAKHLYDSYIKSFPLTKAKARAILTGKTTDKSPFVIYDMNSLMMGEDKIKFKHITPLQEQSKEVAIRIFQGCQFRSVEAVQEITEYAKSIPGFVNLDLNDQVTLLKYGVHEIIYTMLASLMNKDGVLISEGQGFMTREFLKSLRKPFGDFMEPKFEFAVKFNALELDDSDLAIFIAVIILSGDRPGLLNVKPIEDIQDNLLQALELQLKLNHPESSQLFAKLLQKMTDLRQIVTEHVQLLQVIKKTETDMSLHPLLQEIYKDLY
Description: Then, the polynucleotide was cloned between the restriction enzyme sites of BamHI and KpnI of pFA vector (Stratagene, USA). […] RT-PCR was performed by synthesizing cDNA using reverse transcriptase at 42° C. for 60 minutes, and 30 cycles of 1 minute at 95° C., 30 seconds at 54° C. and 2 minutes at 72° C. using Taq polymerase. […] Then, the polynucleotide was cloned between the restriction enzyme sites of XbaI and KpnI of pFA vector (Stratagene, USA).

[1] = system: target genes of PPARγ (LPL, PEPCK); experiment: Expression of target genes of PPARγ in 3T3-L1 pre-adipocytes (RT-PCR); assay type: cell-based, mouse; details: 3T3-L1 cells, 24 hours, then MDI medium two days, vs control
Description: 3T3-L1 mouse pre-adipocytes (ATCC CL-173) cultured in a DMEM medium containing 10% FBS were pipetted into a multi-well plate in a cell count of 1×10^6 cells per well, and then further cultured for 5 hours. To the medium of the cultured cells, 10 μM of macelignan was added and then left for 24 hours. Adipocyte differentiation was induced by substituting the medium of the cultured cells with MDI (0.5 mM 3-isobutyl-1-methylxanthine, 0.5 uM dexamethasone, 10 ug/ml insulin) medium (Am. J. Physiol. Cell Physiol., 280: C807-C813, 2001). Cells were collected two days after the substitution of MDI medium, and the total RNA was isolated by using TRIZOL (Invitrogen, USA). The total RNA isolated as described above was determined, and cDNA was synthesized by using reverse transcriptase at 42° C. for 20 minutes with same amount of RNA. The cDNA was subjected to RT-PCR by repeating 30 cycles of 95° C./1 minute, 56° C./30 seconds and 72° C./2 minutes with the following primers and Taq polymerase: primers for LPL amplification (SEQ ID NO: 13([…]) and SEQ ID NO: 14([…])), and primers for PEPCK amplification (SEQ ID NO: 15(CAGGCGGCTGAA GAAGTATGA) and SEQ ID NO: 16([…])).

[2] = system: obesity/diabetes mice (db/db mice); experiment: Effect upon hyperlipidemia and cardiovascular diseases in obesity/diabetes mouse model; assay type: in vivo; details: 14 days
Description: To investigate effects of macelignan upon the treatment of hyperlipidemia and cardiovascular diseases, seven mice of 10 week-aged obesity/diabetes mice (db/db mice) were used per test group. To the test groups, macelignan suspended in 0.25% carboxymethyl cellulose was orally administered in an administration dose of 5 mg/kg (body weight), 10 mg/kg (body weight) and 25 mg/kg (body weight), once per day at a predetermined time, for 14 days. As a control, 0.25% carboxymethyl cellulose was orally administered alone to normal mice in the same dose as administered to the test group. As another control, 0.25% carboxymethyl cellulose was orally administered alone to obesity/diabetes mice in the same dose as administered to the test group. As still another control, 10 mg/kg (body weight) of troglitazone was orally administered. Fourteen days after the administration, triglyceride concentration in blood (triglyceride measuring kit, Wako, Japan), free fatty acid concentration in blood (free fatty acid measuring kit, Wako, Japan), total cholesterol content in blood (ASAN T-CHO-Lq Reagents, Asan Pharmaceutical Co. Ltd., Korea), HDL-cholesterol content in blood (ASAN HDL-Cholesterol, Asan Pharmaceutical Co. Ltd., Korea), IL-6 content in blood (IL-6 Quantikine ELISA, R&D systems, USA) and TNF-α content in blood were measured for the test groups and the controls.

[3] = system: obesity/diabetes mice (db/db mice); experiment: Effect upon fatty liver in obesity/diabetes mouse model; assay type: in vivo; details: 25 mg/kg oral, 14 days
Description: To investigate effects of macelignan upon the prevention and treatment of fatty liver, seven mice of 10 week-aged obesity/diabetes mice (db/db mice) were used per test group. To the test groups, macelignan suspended in 0.25% carboxymethyl cellulose was orally administered in an administration dose of 5 mg/kg (body weight), 10 mg/kg (body weight) and 25 mg/kg (body weight), once per day at a predetermined time, for 14 days in all. As a control, 0.25% carboxymethyl cellulose was orally administered alone to normal mice in the same dose as administered to the test group. As another control, 0.25% carboxymethyl cellulose was orally administered alone to obesity/diabetes mice in the same dose as administered to the test group. As still another control, 10 mg/kg (body weight) of troglitazone was orally administered. Fourteen days after the oral administration, the liver tissue was isolated and crushed to extract the total lipid and fat contents, and then the triglyceride content accumulated in the liver tissue was measured.

Oral toxicity test = details: rat, in vivo; oral administration, rats; read-out: lethal dose 50% (LD50)

COc1cc(C[C@H](C)[C@H](C)Cc2ccc3c(c2)OCO3)ccc1O (single isomer, unassigned) [macelignan]
luciferase activity higher than the control (PPARγ) (human PPARγ; 25 μM, control 0.01% DMSO): about 10.4 times | PPARγ activity (human PPARγ; 1, 5, 10 and 25 μM, p<0.01 vs control): increased PPARγ activity in a concentration-dependent manner | mRNA expression of LPL and PEPCK [1]: significantly increased | Free fatty acid in blood ([2]; 5 mg/kg oral): 1.26 ± 0.19 mEq/l | HDL-cholesterol in blood ([2]; 5 mg/kg oral): 43.5 ± 6.73 mg/dL | IL-6 in blood ([2]; 5 mg/kg oral): 21.42 ± 11.42 pg/mL | TNF-α in blood ([2]; 5 mg/kg oral): 36.92 ± 16.27 pg/mL | Total cholesterol in blood ([2]; 5 mg/kg oral): 119 ± 13.8 mg/dL | Triglyceride in blood ([2]; 5 mg/kg oral): 98.71 ± 36.62 mg/dL | Free fatty acid in blood ([2]; 10 mg/kg oral): 1.16 ± 0.31 mEq/l | HDL-cholesterol in blood ([2]; 10 mg/kg oral): 42.2 ± 7.29 mg/dL | IL-6 in blood ([2]; 10 mg/kg oral): 12.04 ± 5.47 pg/mL | TNF-α in blood ([2]; 10 mg/kg oral): 16.41 ± 9.60 pg/mL | Total cholesterol in blood ([2]; 10 mg/kg oral): 110 ± 15.2 mg/dL | Triglyceride in blood ([2]; 10 mg/kg oral): 91.71 ± 44.04 mg/dL | Free fatty acid in blood ([2]; 25 mg/kg oral): 1.14 ± 0.15 mEq/l | HDL-cholesterol in blood ([2]; 25 mg/kg oral): 46.6 ± 3.89 mg/dL | IL-6 in blood ([2]; 25 mg/kg oral): 4.86 ± 2.46 pg/mL | TNF-α in blood ([2]; 25 mg/kg oral): 27.54 ± 9.77 pg/mL | Total cholesterol in blood ([2]; 25 mg/kg oral): 110 ± 23.7 mg/dL | Triglyceride in blood ([2]; 25 mg/kg oral): 84.00 ± 31.24 mg/dL | triglyceride content in the liver tissue [3]: 6.30 ± 11.59 mg/g | LD50 (Oral toxicity test): ≥ 2000 mg/kg

From patent US7902254B1, “Method for treating conditions mediated by PPAR using macelignan” (Newtree Co., Ltd., priority 2005, dated 2011)
